The source of these data is patent US10688131B2, “Peptides and scaffolds for use in immunotherapy against head and neck squamous cell carcinoma and other cancers” (Immatics Biotechnologies GmbH, priority 2016, dated 2020).

One assay concerns CD8+ T cells. The experiment in a line: In vitro T-cell priming assay with aAPCs loaded with peptide/MHC complexes and anti-CD28 antibody, pMHC multimer readout. It is filed as cell-based, human. The settings on record: percentage of positive wells among evaluable, HLA-A*02 restricted peptides. From the text: In order to obtain information regarding the immunogenicity of the TUMAPs of the present invention, the inventors performed investigations using an in vitro T-cell priming assay based on repeated stimulations of CD8+ T cells with artificial antigen presenting cells (aAPCs) loaded with peptide/MHC complexes and anti-CD28 antibody.
In order to perform in vitro stimulations by artificial antigen presenting cells loaded with peptide-MHC complex (pMHC) and anti-CD28 antibody, the inventors first isolated CD8+ T cells from fresh HLA-A*02 leukapheresis products via positive selection using CD8 microbeads (Miltenyi Biotech, Bergisch-Gladbach, Germany) of healthy donors obtained from the University clinics Mannheim, Germany, after informed consent.
PBMCs and isolated CD8+ lymphocytes were incubated in T-cell medium (TCM) until use consisting of RPMI-Glutamax (Invitrogen, Karlsruhe, Germany) supplemented with 10% heat inactivated human AB serum (PAN-Biotech, Aidenbach, Germany), 100 U/ml Penicillin/100 μg/ml Streptomycin (Cambrex, Cologne, Germany), 1 mM sodium pyruvate (CC Pro, Oberdorla, Germany), 20 μg/ml Gentamycin (Cambrex). 2.5 ng/ml IL-7 (PromoCell, Heidelberg, Germany) and 10 U/ml IL-2 (Novartis Pharma, Nürnberg, Germany) were also added to the TCM at this step.
Generation of pMHC/anti-CD28 coated beads, T-cell stimulations and readout was performed in a highly defined in vitro system using four different pMHC molecules per stimulation condition and 8 different pMHC molecules per readout condition.
The purified co-stimulatory mouse IgG2a anti human CD28 Ab 9.3 (Jung et al., 1987) was chemically biotinylated using Sulfo-N-hydroxysuccinimidobiotin as recommended by the manufacturer (Perbio, Bonn, Germany). Beads used were 5.6 μm diameter streptavidin coated polystyrene particles (Bangs Laboratories, Illinois, USA).
pMHC used for positive and negative control stimulations were A*0201/MLA-001 (peptide […] (SEQ ID NO. 157) from modified Melan-A/MART-1) and A*0201/DDX5-001 ([…] from DDX5, SEQ ID NO. 158), respectively.
800.000 beads/200 μl were coated in 96-well plates in the presence of 4×12.5 ng different biotin-pMHC, washed and 600 ng biotin anti-CD28 were added subsequently in a volume of 200 μl. Stimulations were initiated in 96-well plates by co-incubating 1×10^6 CD8+ T cells with 2×10^5 washed coated beads in 200 μl TCM supplemented with 5 ng/ml IL-12 (PromoCell) for 3 days at 37° C. Half of the medium was then exchanged by fresh TCM supplemented with 80 U/ml IL-2 and incubating was continued for 4 days at 37° C. This stimulation cycle was performed for a total of three times. For the pMHC multimer readout using 8 different pMHC molecules per condition, a two-dimensional combinatorial coding approach was used as previously described (Andersen et al., 2012) with minor modifications encompassing coupling to 5 different fluorochromes. Finally, multimeric analyses were performed by staining the cells with Live/dead near IR dye (Invitrogen, Karlsruhe, Germany), CD8-FITC antibody clone SK1 (BD, Heidelberg, Germany) and fluorescent pMHC multimers. For analysis, a BD LSRII SORP cytometer equipped with appropriate lasers and filters was used. Peptide specific cells were calculated as percentage of total CD8+ cells. Evaluation of multimeric analysis was done using the FlowJo software (Tree Star, Oregon, USA). In vitro priming of specific multimer+CD8+ lymphocytes was detected by comparing to negative control stimulations.
Exemplary flow cytometry results after TUMAP-specific multimer staining for 2 peptides of the invention are shown in FIGS. 3A and 3B together with corresponding negative controls. Additional exemplary flow cytometry results after TUMAP-specific multimer staining for 3 peptides of the invention are shown in FIGS. 4A-4C together with corresponding negative controls.

The target of another assay is HLA-A*02:01 (Homo sapiens, UniProt P04439, D140Y/D185E/D98H/E176V/E277Q/G131W/G231S/I119V/I121R/I166T/I218V/L300P/L318F/N151K/N90K/P208A/P217A/Q86G/Q94H/R138H/R169H/T345S). The experiment in a line: MHC binding assay: UV-ligand exchange with β2m ELISA. The settings on record: binding of HLA-class I restricted peptides to HLA-A*02:01. From the text:
Candidate peptides for T cell based therapies according to the present invention were further tested for their MHC binding capacity (affinity). The individual peptide-MHC complexes were produced by UV-ligand exchange, where a UV-sensitive peptide is cleaved upon UV-irradiation, and exchanged with the peptide of interest as analyzed. Only peptide candidates that can effectively bind and stabilize the peptide-receptive MHC molecules prevent dissociation of the MHC complexes. To determine the yield of the exchange reaction, an ELISA was performed based on the detection of the light chain (β2m) of stabilized MHC complexes. The assay was performed as generally described in Rodenko et al. (Rodenko et al., 2006).
96 well MAXISorp plates (NUNC) were coated over night with 2 ug/ml streptavidin in PBS at room temperature, washed 4× and blocked for 1 h at 37° C. in 2% BSA containing blocking buffer. Refolded HLA-A*02:01/MLA-001 monomers served as standards, covering the range of 15-500 ng/ml. Peptide-MHC monomers of the UV-exchange reaction were diluted 100-fold in blocking buffer. Samples were incubated for 1 h at 37° C., washed four times, incubated with 2 ug/ml HRP conjugated anti-β2m for 1 h at 37° C., washed again and detected with TMB solution that is stopped with […]. Absorption was measured at 450 nm. Candidate peptides that show a high exchange yield (preferably higher than 50%, most preferred higher than 75%) are generally preferred for a generation and production of antibodies or fragments thereof, and/or T cell receptors or fragments thereof, as they show sufficient avidity to the MHC molecules and prevent dissociation of the MHC complexes.

In the case of “18 (YLYPDLSRL; listed as Homo sapiens) [compound 18]”, the “Wells positive [%]” value in the assay on CD8+ T cells is listed as “+ (<20% = +)”. Further, in the assay with HLA-A*02:01, the “Peptide exchange (MHC class I binding score, peptide exchange yield)” value (shortened to “Peptide exchange”) is “++++ (>75% = ++++)”.
Taken in the same sequence, the figures for “30 (TLASLGYAVV; listed as Homo sapiens) [compound 30]” were “+++ (50%-69% = +++)” and “+++ (>50 = +++)”.
For the substance “13 (SLVSYLDKV; listed as Homo sapiens) [compound 13]”, the “Wells positive [%]” value in the assay with CD8+ T cells was “++ (20%-49% = ++)”. The “Peptide exchange” value with HLA-A*02:01 was “++++ (>75% = ++++)”.
Taken in the same sequence, the figures for “8 (AQLNIGNVLPV; listed as Homo sapiens) [compound 8]” were “+ (<20% = +)” and “++++ (>75% = ++++)”.
Taken in the same sequence, the figures for “17 (SIWPALTQV; listed as Homo sapiens) [compound 17]” were “++++ (>=70% = ++++)” and “++++ (>75% = ++++)”.
Taken in the same sequence, the figures for “10 (TLWPATPPKA; listed as Homo sapiens) [compound 10]” were “+ (<20% = +)” and “+++ (>50 = +++)”.
As for “11 (VLFSSPPVI; listed as Homo sapiens) [compound 11]”, the “Wells positive [%]” value in the assay with CD8+ T cells is listed as “++ (20%-49% = ++)”. In the assay with HLA-A*02:01, the “Peptide exchange” value is recorded as “++++ (>75% = ++++)”.
Taken in the same sequence, the figures for “19 (ALAKLLPLL; listed as Homo sapiens) [compound 19]” were “++ (20%-49% = ++)” and “++++ (>75% = ++++)”.
For “82 (VLDINDNPPV; listed as Homo sapiens) [compound 82]”, in that order: “+ (<20% = +)” and “+++ (>50 = +++)”.
Taken in the same sequence, the figures for “29 (RLLPDLDEV; listed as Homo sapiens) [compound 29]” were “++ (20%-49% = ++)” and “++++ (>75% = ++++)”.
Take “20 (YLINEIDRIRA; listed as Homo sapiens) [compound 20]”: in the assay with CD8+ T cells, the “Wells positive [%]” value was “+ (<20% = +)”. Besides, the “Peptide exchange” value in the assay with HLA-A*02:01 is “++++ (>75% = ++++)”.
As for “1 (GLAGGFGGPGFPV; listed as Homo sapiens) [compound 1]”, the “Wells positive [%]” value with CD8+ T cells is “+ (<20% = +)”. Besides, in the assay with HLA-A*02:01, the “Peptide exchange” value is “++++ (>75% = ++++)”.
Regarding “26 (TLVDENQSWYL; listed as Homo sapiens) [compound 26]”, the “Wells positive [%]” value with CD8+ T cells was “++ (20%-49% = ++)”. Moreover, in the assay with HLA-A*02:01, the “Peptide exchange” value is listed as “+++ (>50 = +++)”.
Taken in the same sequence, the figures for “12 (TLTDEINFL; listed as Homo sapiens) [compound 12]” were “+ (<20% = +)” and “++++ (>75% = ++++)”.
As to “28 (AVDPVSGSLYV; listed as Homo sapiens) [compound 28]”, the “Wells positive [%]” value in the assay with CD8+ T cells was “+++ (50%-69% = +++)”. In the assay with HLA-A*02:01, the “Peptide exchange” value is on record as “++++ (>75% = ++++)”.
